In patent US9518981B2, “Modified nucleic acid binding cyanine dyes for the detection of reactive oxygen species” (LIFE TECHNOLOGIES CORPORATION, priority 2012, dated 2016):

Tests used:
[1] = tested on: Human osteosarcoma (U2-OS) cells; assay: Detection of TBHP- or menadione-induced ROS by fluorescence microscopy; assay type: cell-based; conditions: 200 μM TBHP 2 hrs or 100 μM menadione 1 hr, 5 μM probe for last 30 min, washed 3× PBS
Description: Human osteosarcoma (U2-OS) cells were plated on MatTek 30 mm dishes at a density of 200,000 cells/dish and incubated at 37° C. The cells were then treated with or without 200 μM tert-butyl hydroperoxide (TBHP, 2 hrs at 37° C.) or 100 μM menadione (1 hr at 37° C.). The cells were stained with 5 μM Compound 1 for the last 30 min of the drug incubation. The cells were washed 3× with phosphate buffered saline (PBS) and imaged on a Zeiss Axiovert inverted microscope using a 40× objective.

[2] = tested on: Human aortic smooth muscle (HASM) cells; assay: Detection of angiotensin-II-induced oxidative stress by fluorescence microscopy; assay type: cell-based; conditions: 500 ng/ml angiotensin-II 4 hrs, 5 μM probe for last 30 min
Description: Human aortic smooth muscle (HASM) cells were plated on MatTek 30 mm dishes at a density of 150,000 cells/dish and incubated at 37° C. The cells were then treated with or without 500 ng/ml angiotensin-II for 4 hrs. The cells were stained with 5 μM Compound 1 for last 30 min of the drug incubation. The cells were washed 3× with PBS and imaged on a Zeiss Axiovert inverted microscope using a 40× objective. An increase in the signal of Compound 1 as observed for all compounds tested, indicating an increase in oxidative stress in these cell models (see, FIG. 3).

[3] = tested on: Human osteosarcoma (U2-OS) cells; assay: Resistance to formaldehyde fixation and detergent permeabilization; assay type: cell-based; conditions: 100 μM menadione 1 hr, 5 μM probe, 4% formaldehyde, 0.1% Triton X-100
Description: Human osteosarcoma (U2-OS) cells were plated on a 96-well plate at a density of 7,500 cells/well and incubated overnight at 37° C. The cells were treated with or without 100 μM menadione for 1 hr at 37° C. The cells were then stained with 5 μM Compound 1 and Hoechst 33342 by adding the probes to complete media and incubating at 37° C. for 30 min. The cells were washed with PBS and imaged on a Thermo Fisher Cellomics ArrayScan® VTI, either live or 4% formaldehyde fixed or formaldehyde-fixed and permeabilized with 0.1% Triton X-100.

[4] = tested on: Jurkat cells; assay: Detection of oxidative stress using flow cytometry (menadione, TBHP); assay type: cell-based, human; conditions: menadione 25-100 μM or TBHP 50-200 μM 60 min, 5 μM probe, 488 nm laser, 530/30 filter
Description: Jurkat cells were diluted in RPMI with 10% FBS to a density of 10^6 cells/ml. Control cells were treated with vehicle control or DMSO, and sample cells were treated with different concentrations of menadione (25 μM, 50 μM, or 100 μM), or were treated with different concentrations of Tert-butyl hydroperoxide (TBHP) (50 μM, 100 μM, or 200 μM) for 60 min. Compound 1 was added to a final concentration of 5 μM for the last 30 minutes of drug incubation. The samples were acquired and analyzed on an Attune® Acoustic Focusing Cytometer. Compound 1 fluorescence was detected using the 488 nm laser and a 530/30 nm bandpass emission filter. A total of 20,000 events were collected using the standard 200 μl/minute collection rate. An increase in Compound 1 fluorescence intensity is observed in menadione and TBHP-treated cells compared to their controls (see, FIG. 6).

[5] = tested on: Jurkat cells; assay: Detection of TBHP-induced ROS by flow cytometry, with or without NAC; assay type: cell-based, human; conditions: 500 nM probe
Description: Jurkat cells were treated with phosphate buffered saline (FIG. 7, control), 200 μM tert-butyl-hydroperoxide (FIG. 7, TBHP), or 200 μM TBHP and 1 mM N-acetyl-L-cysteine (FIG. 7, TBHP+NAC), for one hour at 37° C., 5% CO2 prior to incubation with 500 nM Compound 1. Cell samples were analyzed using a Becton Dickinson LSRII flow cytometer equipped with a 488 nm laser line and a 525/50 bandpass filter for collection of fluorescence emission of Compound 1. TBHP is a membrane-permeant pro-oxidant used extensively in a model of oxidative stress in different systems. Reduction in the oxidative stress response induced by TBHP has been attributed to the ability of the antioxidant, NAC, to replenish intracellular glutathione levels. This reduces levels of reactive oxygen species.

[6] = tested on: Jurkat cells (T-cell leukemia, human); assay: Detection of ROS with and without a post-staining wash step, flow cytometry; assay type: cell-based
Description: Jurkat cells (T-cell leukemia, human) were treated with phosphate buffered saline (control; FIG. 8, panel A) or 200 μM tert-butyl-hydroperoxide (TBHP; FIG. 8, panel B) for one hour at 37° C., 5% CO2 prior to incubation with 500 nM Compound 1. Cell samples were directly analyzed on a Becton Dickinson LSRII flow cytometer equipped with a 488 nm laser line and a 525/50 bandpass filter for collection of fluorescence emission of Compound 1. Histogram overlays show cells analyzed immediately following 30 minutes incubation with Compound 1 (FIG. 8) compared to samples analyzed following three-3 mL wash steps (FIG. 8). […] The signal to noise ratio (or fold change in TBHP-treated cells as compared to control cells) in the no-wash samples was similar to the signal to noise ratio in the samples that were washed three times, 9.1 and 10.4, respectively, for the no-wash and the washed sample.

[7] = tested on: Jurkat cells (T-cell leukemia, human); assay: Detection of ROS in complete media vs. protein-containing buffer, flow cytometry; assay type: cell-based; conditions: 500 nM probe
Description: Jurkat cells (T-cell leukemia, human) were resuspended in complete medium (RPMI 1640 medium, GIBCO (Life Technologies, Carlsbad, Calif.), supplemented with 10% Fetal Bovine Serum, FBS) or phosphate buffered saline supplemented with 1% bovine serum albumin (BSA). Cells in both complete medium (FIG. 9, panel A) and buffered saline+1% BSA (FIG. 9, panel B) were treated with diluents control, phosphate buffered saline alone (FIG. 9, control) or 400 μM tert-butyl-hydroperoxide (FIG. 9, TBHP) for 30 minutes at 37° C., 5% CO2 prior to staining with 500 nM Compound 1. Cell samples were analyzed on a BD LSRII flow cytometer equipped with a 488 nm laser line and a 525/50 bandpass filter for collection of fluorescence emission of Compound 1. The median fluorescent intensity (MFI) of Compound 1 fluorescence in control cells (FIG. 9, panel A) and the MFI of Compound 1 fluorescence in TBHP-treated cells (FIG. 9, panel B) stained in complete media (FIG. 9, panel A) were increased compared to samples stained in protein-containing buffer (FIG. 9, panel B). As a consequence, the signal to noise ratio (or fold change in TBHP-treated cells as compared to control cells) in the samples stained in complete media (FIG. 9, panel A) is greater (13.6) than the signal to noise ratio in the samples stained in protein-containing buffer (9.6).

CCCCC1=C/C(=C/C2Sc3ccccc3N2C)c2ccccc2N1c1ccccc1 (stereo not shown) [Compound 1, (Z)-2-((2-butyl-1-phenylquinolin-4(1H)-ylidene)methyl)-3-methyl-2,3-dihydrobenzo[d]thiazole]
signal of Compound 1 (fluorescence) in treated vs untreated cells [1]: increase
signal of Compound 1 (fluorescence) in treated vs untreated cells [2]: increase
signal retention after formaldehyde fixation and detergent permeabilization [3]: retained well
fluorescence intensity in menadione and TBHP-treated cells compared to controls [4]: increase
Mean Fluorescence Intensity (MFI), TBHP-treated cells ([5]; 200 μM TBHP 1 hour): 3944
Mean Fluorescence Intensity (MFI), TBHP + NAC treated cells ([5]; 200 μM TBHP and 1 mM N-acetyl-L-cysteine 1 hour): 2768
Mean Fluorescence Intensity (MFI), control cells ([5]; phosphate buffered saline control): 365
median fluorescence intensity (MFI), no-wash cells compared to washed cells ([6]; 500 nM probe 30 minutes, no wash vs three 3 mL wash steps): not significantly different
signal to noise ratio (fold change in TBHP-treated cells as compared to control cells), no-wash sample ([6]; 200 μM TBHP 1 hour, 500 nM probe, no wash): 9.1
signal to noise ratio (fold change in TBHP-treated cells as compared to control cells), washed sample ([6]; 200 μM TBHP 1 hour, 500 nM probe, washed three times): 10.4
signal to noise ratio (fold change in TBHP-treated cells as compared to control cells), protein-containing buffer ([7]; 400 μM TBHP 30 minutes, PBS + 1% BSA): 9.6
signal to noise ratio (fold change in TBHP-treated cells as compared to control cells), complete media ([7]; 400 μM TBHP 30 minutes, RPMI 1640 + 10% FBS): 13.6
median fluorescent intensity (MFI) in complete media compared to protein-containing buffer ([7]; control and 400 μM TBHP-treated cells): increased
